Each block holds one compound with its values, some of them ahead of it. The source made the active and inactive calls.
Tests used:
[1] = molecular target: T1, Eukaryotic translation initiation factor 2-alpha kinase 3 (Homo sapiens, UniProt Q9NZJ5); experiment: Dose response cell-based high-throughput screening assay to measure PERK inhibition. [Related pubchem assays: 1416 ]; format: functional
T1 sequence (Q9NZJ5 whole entry): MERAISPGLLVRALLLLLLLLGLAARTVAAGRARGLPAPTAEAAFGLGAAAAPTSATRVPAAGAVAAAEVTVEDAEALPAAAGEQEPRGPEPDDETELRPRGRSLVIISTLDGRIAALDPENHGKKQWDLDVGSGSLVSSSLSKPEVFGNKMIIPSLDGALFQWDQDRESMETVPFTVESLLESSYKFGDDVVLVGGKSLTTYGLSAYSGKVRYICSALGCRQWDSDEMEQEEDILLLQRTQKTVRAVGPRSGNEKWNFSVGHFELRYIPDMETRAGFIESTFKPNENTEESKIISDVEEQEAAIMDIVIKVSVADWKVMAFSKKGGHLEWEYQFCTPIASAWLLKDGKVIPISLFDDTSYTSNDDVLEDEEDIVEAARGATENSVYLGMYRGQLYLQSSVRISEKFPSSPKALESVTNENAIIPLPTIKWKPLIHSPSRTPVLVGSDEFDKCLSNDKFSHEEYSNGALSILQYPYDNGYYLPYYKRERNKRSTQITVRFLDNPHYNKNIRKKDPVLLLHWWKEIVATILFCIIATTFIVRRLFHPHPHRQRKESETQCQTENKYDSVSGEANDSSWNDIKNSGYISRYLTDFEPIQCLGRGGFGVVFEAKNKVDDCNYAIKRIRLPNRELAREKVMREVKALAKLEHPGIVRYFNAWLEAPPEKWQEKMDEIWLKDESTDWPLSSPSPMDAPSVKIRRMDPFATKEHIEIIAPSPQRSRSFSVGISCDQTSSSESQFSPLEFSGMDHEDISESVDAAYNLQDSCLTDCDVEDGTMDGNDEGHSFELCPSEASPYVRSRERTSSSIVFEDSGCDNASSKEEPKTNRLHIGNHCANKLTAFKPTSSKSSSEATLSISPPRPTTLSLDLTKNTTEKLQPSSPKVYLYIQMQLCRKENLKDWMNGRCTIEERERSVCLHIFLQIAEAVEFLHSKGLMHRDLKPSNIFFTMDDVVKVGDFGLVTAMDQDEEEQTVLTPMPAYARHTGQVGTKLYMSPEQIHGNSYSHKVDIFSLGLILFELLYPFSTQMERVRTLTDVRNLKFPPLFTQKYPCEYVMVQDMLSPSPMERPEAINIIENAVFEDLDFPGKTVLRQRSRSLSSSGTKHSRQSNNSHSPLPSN

[2] = molecular target: T1, Eukaryotic translation initiation factor 2-alpha kinase 3; experiment: Counterscreen assay for PERK inhibitors: Dose response cell-based high throughput screening assay to measure inhibition of PERK at 6 hours. [Related pubchem assays: 1522, 1416 ]; format: functional
[3] = molecular target: T2, Alkaline phosphatase, tissue-nonspecific isozyme (Homo sapiens, UniProt P05186)
T2 sequence (P05186 whole entry): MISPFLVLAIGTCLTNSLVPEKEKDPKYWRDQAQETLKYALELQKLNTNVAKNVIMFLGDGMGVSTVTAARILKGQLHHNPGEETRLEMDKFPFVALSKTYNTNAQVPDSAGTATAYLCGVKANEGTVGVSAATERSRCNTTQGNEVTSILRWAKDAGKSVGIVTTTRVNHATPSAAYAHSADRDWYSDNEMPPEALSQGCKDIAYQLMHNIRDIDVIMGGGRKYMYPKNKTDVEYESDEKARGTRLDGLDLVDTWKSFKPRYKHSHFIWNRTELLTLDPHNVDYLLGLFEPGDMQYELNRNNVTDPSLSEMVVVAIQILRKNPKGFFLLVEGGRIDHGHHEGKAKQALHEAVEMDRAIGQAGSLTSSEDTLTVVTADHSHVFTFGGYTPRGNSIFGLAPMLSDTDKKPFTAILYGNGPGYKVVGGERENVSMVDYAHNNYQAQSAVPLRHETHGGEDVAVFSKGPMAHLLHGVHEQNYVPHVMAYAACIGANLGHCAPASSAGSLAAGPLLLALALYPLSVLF

[4] = molecular target: Albumin (Bos taurus, UniProt P02769); experiment: Counterscreen for inhibitors of T-cell receptor (TCR)-CD3 interaction: Fluorescence-based biochemical high throughput dose response assay to identify inhibitors of T-cell receptor (TCR)-CD3 interaction using a TAMRA-labeled BSA probe.; format: functional
[5] = molecular target: Cytochrome P450 2C9 (Homo sapiens, UniProt P11712); details: Potency
[6] = molecular target: Prothrombin (Homo sapiens, UniProt P00734); experiment: Thrombin 1536 HTS Dose Response Confirmation. [Related pubchem assays: 1046 (Thrombin 1536 HTS; hits were confirmed in this assay)]; format: functional
[7] = molecular target: Trypsin (Sus scrofa, UniProt P00761); experiment: trypsin protease activity blockade – biochemical, quenched peptide fluorescence, cherry-pick, selectivity assay for Rce1 protease inhibitor project, dose response (AID 488789)
Sequence of Trypsin (P00761 whole entry): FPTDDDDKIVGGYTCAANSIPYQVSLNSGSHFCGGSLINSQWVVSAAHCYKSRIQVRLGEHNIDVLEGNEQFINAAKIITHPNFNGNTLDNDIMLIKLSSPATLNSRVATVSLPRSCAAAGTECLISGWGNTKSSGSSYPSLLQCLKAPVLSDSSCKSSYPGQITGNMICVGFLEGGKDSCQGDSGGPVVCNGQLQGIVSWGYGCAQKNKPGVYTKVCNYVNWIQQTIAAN

Sequence of Cytochrome P450 2C9 (P11712 whole entry): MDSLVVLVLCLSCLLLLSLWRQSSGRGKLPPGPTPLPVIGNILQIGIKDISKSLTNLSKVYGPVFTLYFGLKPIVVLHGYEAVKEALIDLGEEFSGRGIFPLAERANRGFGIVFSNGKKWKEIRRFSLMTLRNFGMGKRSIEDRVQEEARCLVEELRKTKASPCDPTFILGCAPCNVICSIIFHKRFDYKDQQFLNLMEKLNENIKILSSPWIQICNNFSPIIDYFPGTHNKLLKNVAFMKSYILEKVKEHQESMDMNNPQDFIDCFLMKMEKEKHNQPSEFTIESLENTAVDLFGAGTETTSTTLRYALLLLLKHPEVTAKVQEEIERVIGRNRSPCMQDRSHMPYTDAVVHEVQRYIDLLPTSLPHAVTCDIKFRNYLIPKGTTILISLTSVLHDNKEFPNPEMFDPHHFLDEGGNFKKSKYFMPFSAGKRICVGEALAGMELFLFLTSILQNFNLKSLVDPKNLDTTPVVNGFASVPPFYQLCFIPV
Sequence of Albumin (P02769 whole entry): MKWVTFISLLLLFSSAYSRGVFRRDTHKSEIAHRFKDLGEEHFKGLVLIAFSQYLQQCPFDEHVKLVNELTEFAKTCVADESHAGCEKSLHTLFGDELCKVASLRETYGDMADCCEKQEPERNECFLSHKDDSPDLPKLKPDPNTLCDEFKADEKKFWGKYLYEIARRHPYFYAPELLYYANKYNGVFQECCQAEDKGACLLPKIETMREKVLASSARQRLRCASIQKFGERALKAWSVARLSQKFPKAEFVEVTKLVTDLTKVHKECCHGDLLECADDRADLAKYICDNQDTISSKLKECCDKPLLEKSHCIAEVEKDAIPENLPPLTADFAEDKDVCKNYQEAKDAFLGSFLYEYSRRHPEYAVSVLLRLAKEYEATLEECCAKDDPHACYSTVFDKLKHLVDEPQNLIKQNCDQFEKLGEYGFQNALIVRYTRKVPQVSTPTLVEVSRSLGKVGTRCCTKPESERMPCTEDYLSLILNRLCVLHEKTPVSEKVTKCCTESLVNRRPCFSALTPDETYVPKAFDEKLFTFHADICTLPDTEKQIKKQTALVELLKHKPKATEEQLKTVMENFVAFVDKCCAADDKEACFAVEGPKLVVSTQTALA

Structure (SMILES): C=C[C@@](C)(O)CC[C@H]1[C@]2(C)CCCC(C)(C)[C@H]2CC[C@]1(C)O
AC50 [5]: 31.6 µM (inconclusive)

Structure (SMILES): COc1ccc(-c2ccc(-c3nnc(-c4cc(OC)ccc4OC)o3)cc2)cc1
AC50 [7]: 10.4 µM (active)

Second part, the compound after the results:

EC50 [1]: > 55.7 µM (not active) | EC50 [2]: > 55.7 µM (not active)
Structure (SMILES): CC(NS(=O)(=O)c1ccccc1)c1nnc(S)n1-c1ccccc1 (centres undefined)

EC50 [3]: 64.3 µM (not active) | IC50 [4]: > 94.1 µM (inactive)
Structure (SMILES): COc1ccc(/C=C2\SC(=O)N(CC(=O)NNC(=O)c3ccccc3O)C2=O)cc1

AC50 [5]: 3.16 µM (inconclusive)
Structure (SMILES): CCOC(=O)OCC1OC(c2ccccc2)C=CC1OC(=O)OCC (centres undefined)

EC50 [3]: > 100 µM (not active) | IC50 [6]: > 50 µM (not active)
Structure (SMILES): COc1ccc(CCNC(=O)C2CCC(CNS(=O)(=O)c3ccccc3)CC2)cc1OC (centres undefined)

From ChEMBL document CHEMBL1201862, “PubChem BioAssay data set” (2004)
